{"source": "patent US20190185438A1", "about": "(Tonix Pharmaceuticals Holding Corp., priority 2016, published 2019)", "origin": "cited, not measured here", "key": {"[1]": {"system": "patients with fibromyalgia"}, "[2]": {"system": "patients with fibromyalgia", "conditions": "8 weeks"}, "[3]": {"conditions": "4 mg/day, week 14, 10-point scale, p <0.001"}}, "note": "Read-outs that look alike come from different tables or passages of the source. Marks after values point to notes of the source that are not given here.", "data": [{"compound": "CCOc1ccccc1O[C@@H](c1ccccc1)[C@@H]1CNCCO1", "note": "[Esreboxetine, (2S)-2-[(S)-(2-ethoxyphenoxy)-phenylmethyl]morpholine]", "values": [{"measurement": "GFI score compared to placebo", "setting": "[1]; 4 mg/day and 8 mg/day, 14 weeks, P=0.001", "result": "significant improvement"}, {"measurement": "GFI score, treatment difference", "setting": "[1]; [3]", "result": "−0.64* (10-point scale)"}, {"measurement": "Pain score, treatment difference", "setting": "[1]; [3]", "result": "−0.74* (10-point scale)"}, {"measurement": "FIQ score, treatment difference", "setting": "[1]; 4 mg/day, week 14, 100-point scale, p <0.001", "result": "−7.12* (100-point"}, {"measurement": "PGIC, much improved or very much improved", "setting": "[1]; 4 mg/day, week 14, p 0.002", "result": 41.7, "unit": "%**"}, {"measurement": "Tolerability", "setting": "[1]; 14 weeks", "result": "generally well tolerated"}, {"measurement": "PGIC score compared to placebo", "setting": "[1]; all doses (4, 8, 10 mg/day), 14 weeks, P≤0.007", "result": "significant improvement"}, {"measurement": "FIQ score compared to placebo", "setting": "[1]; all doses (4, 8, 10 mg/day), 14 weeks, P≤0.023", "result": "significant improvement"}, {"measurement": "Pain score compared to placebo", "setting": "[1]; all doses (4, 8, 10 mg/day), 14 weeks, P≤0.025", "result": "significant improvement"}, {"measurement": "Tolerability", "setting": "[2]", "result": "generally well-tolerated"}, {"measurement": "Pain scores compared to placebo", "setting": "[2]; 2 mg/day raised to 8 mg/day or maximum tolerated dose", "result": "statistically significant reductions"}, {"measurement": "Patients discontinued due to adverse events", "setting": "[2]; placebo 2.3%", "result": 8.2, "unit": "%"}]}]}
